Reference: patent US9717732B2, “Drug combination” (VERONA PHARMA PLC, priority 2013, dated 2017)

Key:
[1] = tested on: anaesthetized rats; experiment: Cardiovascular interaction (safety) study, blood pressure and heart rate, i.v. bolus; format: in vivo, rat
Excerpt: This study was undertaken to determine whether RPL554 has cardiovascular interactions with a β2-adrenergic receptor agonist (salbutamol). A muscarinic receptor antagonist (atropine) was included for completeness. RPL554 is a dual PDE3/PDE4 inhibitor being developed for treatment of chronic obstructive pulmonary disease (COPD) and asthma as an inhaled bronchodilator with possible anti-inflammatory actions. […] The study design was blind and random with drugs given as pairs five minutes apart in an alternating manner, e.g., RPL554 followed by salbutamol and vice versa. […] Instead they were chosen to test for possible interactions under supra therapeutic conditions.
Doses producing a 15-30 mmHg increase in mean blood pressure (MBP) and 30-60 beats per minute increase in heart rate (HR) were chosen from an initial dose-response study for RPL554 and salbutamol. […] Thereafter, the chosen doses were examined in pairs administered 5 minutes part. […] The intention of the study was to use supra normal conditions in order to challenge for possible interactions under supra therapeutic conditions.
The studies were performed on Sprague-Dawley male rats from Charles River weighing 200-250 grms. […] For the purposes of the experiment the animals were anaesthetized with thiobutabarbital at a dose of 100 mg/kg given by the i.p. route. There was no necessity for supplemental anaesthesia and at the end of the experimental period each rat was sacrificed. The study had two parts: (I) an initial dose ranging study and (II) the interaction study. The drugs studied were: RPL554 (R), salbutamol (S), atropine (A) all dissolved in saline.
An initial dose-ranging study was performed as follows: cumulative dose-response curves for intravenous bolus doses of the three drugs were performed to determine appropriate doses of each of the three drugs for the full study. Doses of RPL554 or salbutamol producing a 15-30 mmHg increase in mean blood pressure (MBP) and 30-60 beats per minute increase in heart rate (HR) were chosen from this initial dose-response study. […] This dose-ranging study involved four rats in which cumulative doses of each of the 3 drugs were given on a dose-doubling basis. Doses of each of the drugs were given as i.v. bolus injections every 5 minutes with 1 hour between different drugs. The order of injections were: for animal 1—S, R, A; animal 2—R, A, S; animal 3—A, S, R and animal 4—R, A, S. As indicated above the doses and routes of injection where chosen as supernormal and above doses producing effects when given by inhalation.
In this study all drugs were given as a single dose by i.v. bolus injection, via a jugular vein cannula, and at a volume of 1 mL/kg. The study design was blind and random with three lines each containing four animals for a total of 12 animals.
Pairs of drugs were given to individual animals on a randomized blind basis using a line by line design where each line contained four rats with injections as follows: R1S2, S1R2, R1A2 and A1R2 (in random order where 1 indicates the first drug given and 2 indicates the second drug given 5 minutes after the first drug). A total of 3 lines were studied thus a total of 12 rats were used and none of the animals had to be replaced.

[2] = tested on: human isolated bronchial preparations; experiment: Inhibition of EFS-induced contraction of human isolated bronchi; settings: after termination of drug exposure
Experimental: Regions of macroscopically normal lungs were taken from uninvolved areas resected from 24 subjects (11 male and 13 female, 60.1±1.6 years old) undergoing lobectomy surgery for lung cancer, but without a history of chronic airway disease.
Airways were immediately placed into oxygenated Krebs-Henseleit buffer solution (KH) (mM: NaCl 119.0, KCl 5.4, CaCl2 2.5, KH2PO41.2, MgSO4 1.2, NaHCO3 25.0, glucose 11.7; pH 7.4) containing the cyclooxygenase (COX) inhibitor indomethacin (5.0 μM), and transported at 4° C. from the “Regina Elena National Cancer Institute” or the “Sant'Andrea Hospital” to the Respiratory Research Laboratory in the Surgery and Medicine Faculty of “Tor Vergata University”, Rome, Italy. None of the subjects were chronically treated with theophylline, β2-agonists or glucocorticosteroids. Serum IgE levels determined on the day of surgery were in the normal range. […]
Human bronchi were placed in organ baths containing KH buffer solution (37° C.) medicated with indomethacin (5.0 μM), bubbled with 95% O2/5% CO2 and suspended under passive tension (0.5-1.0 g). […] Changes in isometric tension were measured with a transducer (Fort 10 WPI, Basile, Instruments, Italy) and the tissue responsiveness was assessed by acetylcholine (100 μM); when the response reached a plateau, rings were washed three times and allowed to equilibrate for 45 min. […]

[3] = tested on: human isolated bronchial tissues pre-contracted with acetylcholine; experiment: Relaxation of human isolated bronchi pre-contracted with acetylcholine (EC70), drugs alone and in combination, synergy analysis; settings: n=5; for slope (nH): 4 parameter logistic fit
Experimental: Bronchial rings were mounted on hooks in the organ baths where one hook was attached with threaded to a stationary rod and the other hook tied with thread to an isometric force displacement transducer. […] Tallarida, 2001; Goldoni and Johansson, 2007; Boik et al., 2008; Lee, 2010). […] Goodman et al., 2008). E/Emax was expressed as percentage of Emax elicited by the contractile agents; […] The analysis of the potential synergism between RPL554 plus a β2-adrenergic receptor agonist was measured by applying the Berenbaum method, the Bliss Independence (BI) criterion and the Loewe Additivity (LA) model through curved isoboles (Berenbaum, 1977; Greco et al., 1995; Grabovsky and Tallarida, 2004; Tallarida, 2006; Goldoni and Johansson, 2007; Tallarida and Raffa, 2010). […] Lee, 2010). The BI theory for two agents is expressed by the following equation: E(x,y)=Ex+Ey-(Ex*Ey), where E is the fractional effect, and x and y are the concentrations of two compounds in a combination experiment. If the combination effect is higher than the expected value from the above equation, the interaction is considered synergistic, while if this effect is lower, the interaction is antagonistic. […] In this study, the BI equation was characterized by X=RPL554 and Y=β2-adrenergic receptor agonist. […] Using the concept of dose equivalence, the relationship a/A+b/B=1 was reformulated as b+beq (a)=B, where beq is the dose equivalent of a and solving for beq(a) by equating the two individual concentration response curves EA=f(A) and EB=f(B). The additive response (Eab) for each dose combination with respect to B was then calculated by insertion of B into EB=f(B). The difference between the observed relaxation response to the combination doses and the additive response was calculated and analysed using a one sample t-test and for multiple comparisons, the probability was adjusted for multiple comparisons using a Bonferroni correction. For illustrative purposes, the 1:1 dose combinations were analysed for synergy. […] Then, concentration response curves were constructed to test individual compound RPL554, or salbutamol alone; or RPL554 administered in combination with salbutamol in order to produce isobolar graphs (salbutamol:RPL554 and ranging from 10:1 to 1:100) as described elsewhere (Greco et al., 1995; Tallarida, 2001; Goldoni and Johansson, 2007; Boik et al., 2008; Lee, 2010).

[4] = tested on: passively sensitized human isolated bronchi; experiment: Contraction induced by histamine in passively sensitized human bronchi; settings: RPL554 100 μM
Experimental: Human isolated bronchial rings were rotated overnight at room temperature in tubes containing KH buffer solution in the absence (non-sensitized control rings) or the presence of 10% vol^−1 sensitizing serum (sensitized rings) as described elsewhere (Watson et al., 1997; Rabe, 1998). Subjects suffering from atopic asthma (total IgE>250 U^−1 specific against common aeroallergens) during exacerbation provided signed consent for serum donation.
Sera was prepared by centrifugation of whole blood and sera samples were frozen at −80° C. in 200 ml aliquots until required.
The next morning, after removal of adhering alveolar and connective tissues, bronchial rings were transferred into an organ bath containing KH buffer (37° C.) and continuously gassed with a 95% O2/5% CO2. Tissues were pre-incubated for 30 min with RPL554 (1, 10 and 100 μM) and then followed (without washing) by the construction of concentration responses curve to histamine (10 nM-1 mM) in the presence of RPL554.
Appropriate curve-fitting to a sigmoidal model was used to calculate the effect (E), the Emax and the concentration required to cause a 50% maximal effect (EC50). The equation used was log [agonist] vs. response, Variable slope, expressed as Y=Bottom+(Top−Bottom)/{1+10^[(Log EC50−X)*HillSlope]} (Motulsky and Christopoulos, 2004; Goodman et al., 2008). […]

[5] = tested on: Guinea pigs; experiment: Reduction in mean arterial blood pressure after iv. administration; format: in vivo, guinea pig; settings: 20 μg/kg RPL554 iv., control (alone)
Experimental: (§1) Guinea pigs were anaesthetized and ventilated. Airway obstruction was induced by the intravenous administration of bombesin (2 μg/ml; 5 ml/hr). Bronchodilation was induced by the iv. administration of RPL554 alone at various doses, or in combination with sub maximal dose of salbutamol (20 μg/kg). Doses were selected following studies generating a dose-response curve for both salbutamol to select a dose resulting in approximately 20% reduction in airways obstruction. Total lung resistance (RL) and mean arterial blood pressure were measured. Data are expressed as % reduction in airways obstruction or blood pressure.

[6] = tested on: guinea pig airways; experiment: Reversal of bombesin-induced airways obstruction (total lung resistance); format: in vivo; settings: salbutamol 20 μg/kg alone
Experimental: as §1

Row | EC50 ([3]; Homo sapiens, geomean (95% CI), acetylcholine EC70, read-out: potency (EC50), relaxation) [µM] | SMILES | Time to peak response, blood pressure [1] | Time to peak response, heart rate [1] [min] | Duration of inhibition of EFS contractile response after exposure to drug [2] | slope (nH) ([3]; mean±SD) | Effect on contraction induced by histamine [4] | reduction in mean arterial blood pressure [5] [%] | reduction in airways obstruction [6] [%] | Emax ([3]; Homo sapiens, mean±SD, acetylcholine EC70, percentage of papaverine (500 μM) induced relaxation) [%]
1 | – | COc1cc2c(cc1OC)-c1cc(=Nc3c(C)cc(C)cc3C)n(CCNC(N)=O)c(=O)n1CC2 [RPL554, 9,10-Dimethoxy-2-(2,4,6-trimethylphenylimino)-3-(N-carbamoyl-2-aminoethyl)-3,4,6,7-tetrahydro-2H-pyrimido[6,1-a]isoquinolin-4-one] | 60 to 80 s | 2 to 4.5 | at least 5 h | 2.271±0.713 | completely abolished the contraction induced by histamine | 37.3±6.7 | – | –
2 | – | CN1[C@@H]2CC[C@H]1C[C@@H](OC(=O)C(CO)c1ccccc1)C2 (some centres unmarked) [atropine] | 240 s | 4 | – | – | – | – | – | –
3 | 0.283 | CC(C)(C)NCC(O)c1ccc(O)c(CO)c1 (centres unmarked) [salbutamol] | approximately 20 seconds | ~1 | – | 1.572±0.482 | – | – | 34.2±11.1 | 78 ± 11
